Assays:
elastin (Eln) mRNA = test: Screening of actives by qualitative RT-PCR, elastin mRNA in aged adult fibroblasts (Example 9); format: cell-based; settings: actives at 1% (v/v), 24 hours, fibroblasts of normal human skin of aged adults; compared to actin and to negative control
Procedure: (§1) The actives were tested at 1% (v/v) on fibroblasts of normal human skin (originating from healthy <<aged >> adults). The culture was carried out, e.g. in a monolayer on 24-well culture plates, in a defined medium without serum (Fibroblast Basal Medium, Promocell, Germany). The cells were sown, e.g. at 40,000 per cm^2. At the confluence, the cells are placed in contact with the actives advantageously for 24 hours. In parallel, a non-treated control (medium alone) and three positive controls (TGF-β at 1 ng/ml, IL-1α at 50 pg/ml and Phytokine® (Coletica, France) at 2%(v/v)) are advantageously carried out, e.g. on the same culture plate. The TGF-β at 1 ng/ml and the IL-1α at 50 pg/ml were tested beforehand and the stimulation of the synthesis of elastin mRNA induced by these two cytokines at these concentrations was verified by an analysis of the mRNAs, e.g. by quantitative RT-PCR (×10 for TGF-β and x6 for IL-1 alpha). […] The total RNAs are extracted e.g. with the aid of an extraction kit of 96 wells on silica columns and were determined on a 96-well spectrophotometer at 260 nm (purity indicator: protein determination at 280 nm). […] The photographs of the gels were analyzed by image analysis and quantification of the intensity of the bands (Phoretix1D Quantifier, Non Linear Dynamics Ltd, USA). […]

LOX mRNA = test: Screening of actives by qualitative RT-PCR, LOX mRNA in aged adult fibroblasts (Example 9); format: cell-based; settings: actives at 1% (v/v), 24 hours, fibroblasts of normal human skin of aged adults; compared to actin and to negative control
Procedure: as §1

elastin mRNA = test: Verification of positive controls: stimulation of the synthesis of elastin mRNA by quantitative RT-PCR; format: cell-based, human; settings: TGF-β at 1 ng/ml
Procedure: The TGF-β at 1 ng/ml and the IL-1α at 50 pg/ml were tested beforehand and the stimulation of the synthesis of elastin mRNA induced by these two cytokines at these concentrations was verified by an analysis of the mRNAs, e.g. by quantitative RT-PCR (×10 for TGF-β and x6 for IL-1 alpha). After the time of placing the actives in contact with the cells, e.g. 24 hours, the media are removed and the cells are preserved e.g. by dry freezing at −80° C. after a rinsing in phosphate buffer pH 7.4. The total RNAs are extracted e.g. with the aid of an extraction kit of 96 wells on silica columns and were determined on a 96-well spectrophotometer at 260 nm (purity indicator: protein determination at 280 nm). […]
The actives were tested at 1% (v/v) on human scar tissue skin fibroblasts (surgical recovery of hypertropic scar after caesarean) in premature passage (lower than 5 passages). […] The TGF-β at 1 ng/ml and the IL-1α at 50 pg/ml were tested beforehand and the stimulation of the synthesis of elastin mRNA induced by these two cytokines at these concentrations was verified by an analysis of the mRNAs, e.g. by quantitative RT-PCR (x10 for TGF-β and x6 for IL-1 alpha). […] The total RNAs are extracted e.g. with the aid of an extraction kit of 96 wells on silica columns and were determined on a 96-well spectrophotometer at 260 nm (purity indicator: protein determination at 280 nm). […]

Row | Compound | Eln Control multiplied by: (elastin (Eln) mRNA) | LOX Control multiplied by: (LOX mRNA) | stimulation of the synthesis of elastin mRNA (elastin mRNA) [x]
1 | OC[C@@H](O)[C@H](O)[C@@H](O)CO [Xylitol] | 0.27 | 3.10 | –
2 | TGF-β | – | – | 10

From patent US20040258676A1, “Stimulation of the activity of an isoform of lysyl oxidase for combating against some pathologies due to an incomplete, absent or disorganized elastogenesis” (COLETICA, priority 2003, published 2004)
